Reference: publication PMC9936582, “Sulfamate Acetamides as Self-Immolative Electrophiles for Covalent Ligand-Directed Release Chemistry” (Journal of the American Chemical Society, 2023)

System: Mino cells
Test: Competitive pull-down proteomics with ibrutinib alkyne probe in Mino cells
Assay type: cell-based, human
Details: 1 µM compound 1 h
Method: (10 μM). This was followed by a reaction with biotin-azide using CuAAC, enrichment of the labeled proteins, and their quantification by tryptic digestion and LC/MS/MS analysis.
The samples were then precipitated with methanol: chloroform (1 mL of methanol, 250 μL of chloroform, and 750 μL of water), washed with 1 mL of methanol, and air-dried. The samples were solubilized and bound to streptavidin agarose beads in PBS for 3 h at 25 °C. The beads were washed, centrifuged, and resuspended in Tris 50 mM pH 8 and transferred to a clean Eppendorf tube. After this, the bound proteins were eluted by boiling with 5% SDS then reduced with DTT, alkylated with iodoacetamide, and digested with trypsin. The samples were run on LC/MS/MS. The detailed procedure is available in the Supplementary Information. The mass spectrometry proteomics data have been deposited to the ProteomeXchange Consortium via the PRIDE[67] partner repository with the dataset identifiers PXD038301 and PXD038375.
400 µL of 0.1% IGEPAL/PBS were added, and the beads were washed 3 times with 0.1% IGEPAL/PBS, 3 times PBS and 3 times water. The peptides were eluted by incubation with 200 µL of 50% acetonitrile + 0.1% TFA for 5 min, followed by two more portions of 100 µL of 50% acetonitrile + 0.1% TFA. The samples were dried by speedvac, and further purified using Oasis desalting columns (Waters), after which they were dried and run on the instrument.
Pull-down samples preparation […]
incubation with 10 μM “probe 4” for another hour. The samples were prepared in quadruplicates. The cells were washed with cold PBS, from the flasks and frozen. Then, each sample was lysed in 200 μL of […]
The protein in the supernatant was quantified using BCA. For each sample, 250 μL of 1.7 mg/mL was prepared. At this point, 5 μL of 5 mM biotin azide and 9 μL of 100 mM CuSO4/THPTA complex were added. The click reaction was initiated by the addition of 7.5 μL of 150 mM sodium ascorbate, and the samples are incubated at room temperature for 1 h. The samples were then precipitated with methanol/chloroform (1 mL methanol, 250 μL chloroform, 750 μL water), washed with 1 mL of methanol, and air-dried. […]
and heated to 95 °C for 5 min. The samples were then diluted to 1.5 mL with PBS, and 50 μL of streptavidin agarose beads, prewashed with 0.2% SDS in PBS, was added, followed by 3 h incubation at room temperature. Following the incubation, the beads were centrifuged at 2000g for 2 min and washed four times with the following buffers (4 mL in each wash): 2% SDS; 0.1% sodium deoxycholate, 1% Triton X-100, 0.5 M NaCl, 1 mM EDTA, 50 mM HEPES pH = 7.5; 0.25 M NaCl, 0.5% IGEPAL, 0.5% sodium deoxycholate, 1 mM EDTA, 10 mM Tris pH = 8.1; 50 mM Tris pH = 7.4, 50 mM NaCl. […]
with heating to 95 °C for 6 min and occasional vortexing. Finally, the beads were spun down (2 min 2000g) and 80 μL of supernatant was removed to separate tubes. […]
had cooled, 4 μL of iodoacetamide (0.2 M) were added, and the samples were incubated in the dark for 40 min at room temperature. […]
samples were diluted 6-fold with 90% methanol + 50 mM ammonium bicarbonate. The samples were then […]
loaded on S-trap micro columns (Protify), and the columns were washed three times with 150 μL of 90% methanol + 50 mM ammonium bicarbonate. Then, 20 μL of 0.05 μg/μL of trypsin in 50 mM ammonium bicarbonate was added to the columns and the samples were incubated at 47 °C for 90 min. Then, 40 μL of 50 mM ammonium bicarbonate was added, followed by centrifugation and addition of 1 μL of 0.5 μg/μL trypsin to the eluate, which was incubated at 37 °C overnight. The column itself was then eluted using 40 μL of 0.2% formic acid and 40 μL 0.2% formic acid in 50% acetonitrile into a separate tube, which was kept at 4 °C. The two eluates were then combined and evaporated. The samples were further desalted using […]

CNS(=O)(=O)OCC(=O)N1CCC[C@@H](n2nc(-c3ccc(Oc4ccccc4)cc3)c3c(N)ncnc32)C1 [3c]
Log2(Fold Change) (4F2_HUMAN): -0.003946 | Log2(Fold Change) (AATM_HUMAN): 0.8443 | Log2(Fold Change) (ACSF3_HUMAN): -0.02243 | Log2(Fold Change) (AHNK_HUMAN): 0.1794 | Log2(Fold Change) (ALG1_HUMAN): 0.4128 | Log2(Fold Change) (ANXA1_HUMAN): -1.116 | Log2(Fold Change) (APEX1_HUMAN): 0.3544 | Log2(Fold Change) (ARP3_HUMAN;ARP3B_HUMAN;ARP3C_HUMAN): 0.7666 | Log2(Fold Change) (AT1A1_HUMAN;AT1A2_HUMAN;AT1A4_HUMAN;ATP4A_HUMAN;AT12A_HUMAN): 0.2874 | Log2(Fold Change) (ATP5H_HUMAN): 0.2249 | Log2(Fold Change) (ATPK_HUMAN): 0.3336 | Log2(Fold Change) (ATPO_HUMAN): 1.122 | Log2(Fold Change) (ATX10_HUMAN): 1.148 | Log2(Fold Change) (BST2_HUMAN): 1.515 | Log2(Fold Change) (BZW1_HUMAN): 1.5907 | Log2(Fold Change) (C1TM_HUMAN): 0.2312 | Log2(Fold Change) (CALL5_HUMAN): -0.3562 | Log2(Fold Change) (CD20_HUMAN): 0.973 | Log2(Fold Change) (CD38_HUMAN): 0.2424 | Log2(Fold Change) (CLCA_HUMAN): 0.2558 | Log2(Fold Change) (CLH1_HUMAN;CLH2_HUMAN): -0.3445 | Log2(Fold Change) (COX2_HUMAN): 0.13 | Log2(Fold Change) (CRERF_HUMAN): -0.08019 | Log2(Fold Change) (DD19B_HUMAN;DD19A_HUMAN): 0.602 | Log2(Fold Change) (DDX3X_HUMAN;DDX3Y_HUMAN;DDX4_HUMAN): 0.1847 | Log2(Fold Change) (DNJC7_HUMAN): -0.02484 | Log2(Fold Change) (DSC1_HUMAN): -0.8463 | Log2(Fold Change) (EF1B_HUMAN): -0.1869 | Log2(Fold Change) (EPIPL_HUMAN): -1.263 | Log2(Fold Change) (FPPS_HUMAN): -0.1485 | Log2(Fold Change) (GCR_HUMAN): -0.05313 | Log2(Fold Change) (GLYM_HUMAN;GLYC_HUMAN): 0.5085 | Log2(Fold Change) (GSDMA_HUMAN): -0.7475 | Log2(Fold Change) (HMCS1_HUMAN): 0.08713 | Log2(Fold Change) (HXK2_HUMAN;HXK3_HUMAN): 0.7187 | Log2(Fold Change) (IF4A1_HUMAN): -0.255 | Log2(Fold Change) (IF4A3_HUMAN): 1.002 | Log2(Fold Change) (IF4H_HUMAN): 0.7933 | Log2(Fold Change) (IGLL5_HUMAN;IGL1_HUMAN;IGLC1_HUMAN): -1.242 | Log2(Fold Change) (LAPM5_HUMAN): 0.4417 | Log2(Fold Change) (LAT1_HUMAN): -0.2915 | Log2(Fold Change) (LMNA_HUMAN): 0.31 | Log2(Fold Change) (MATR3_HUMAN): 0.6026 | Log2(Fold Change) (MBB1A_HUMAN): 0.2625 | Log2(Fold Change) (MCCA_HUMAN): -0.03232 | Log2(Fold Change) (MIC19_HUMAN): -0.1615 | Log2(Fold Change) (MP2K7_HUMAN): 1.332 | Log2(Fold Change) (NCEH1_HUMAN): 0.9366 | Log2(Fold Change) (NT5D1_HUMAN): 0.9214 | Log2(Fold Change) (NUCL_HUMAN): 0.1005 | Log2(Fold Change) (OTUB1_HUMAN): -0.08587 | Log2(Fold Change) (P121C_HUMAN;P121A_HUMAN): 0.1409 | Log2(Fold Change) (PARK7_HUMAN): 0.4175 | Log2(Fold Change) (PCKGM_HUMAN): -0.3825 | Log2(Fold Change) (PEBP1_HUMAN): 0.1182 | Log2(Fold Change) (PEPL_HUMAN): -0.4806 | Log2(Fold Change) (PFKAL_HUMAN): -0.8784 | Log2(Fold Change) (PGK1_HUMAN;PGK2_HUMAN): 0.09163 | Log2(Fold Change) (PIP_HUMAN): -1.053 | Log2(Fold Change) (PLAK_HUMAN;CTNB1_HUMAN): -0.3765 | Log2(Fold Change) (POF1B_HUMAN): -0.7349 | Log2(Fold Change) (PSA3_HUMAN): 0.7265 | Log2(Fold Change) (PSB8_HUMAN): 0.6836 | Log2(Fold Change) (RAB1A_HUMAN;RAB1B_HUMAN;RAB1C_HUMAN): 0.7505 | Log2(Fold Change) (RANG_HUMAN;IPKB_HUMAN): -0.3363 | Log2(Fold Change) (RAP1B_HUMAN;RAP1A_HUMAN;RP1BL_HUMAN;RAB3D_HUMAN): -0.2646 | Log2(Fold Change) (RFTN1_HUMAN): 0.04464 | Log2(Fold Change) (RL13A_HUMAN;R13P3_HUMAN): 0.8429 | Log2(Fold Change) (RL18_HUMAN): 0.1972 | Log2(Fold Change) (RLA1_HUMAN): -0.4322 | Log2(Fold Change) (RN3P2_HUMAN): -0.1916 | Log2(Fold Change) (RS28_HUMAN): 1.548 | Log2(Fold Change) (RTN4_HUMAN): 0.4072 | Log2(Fold Change) (RUVB2_HUMAN): 0.8939 | Log2(Fold Change) (S38A1_HUMAN): 1.036 | Log2(Fold Change) (S61A1_HUMAN;S61A2_HUMAN): 1.044 | Log2(Fold Change) (SAE2_HUMAN): 0.8904 | Log2(Fold Change) (SATT_HUMAN): 0.02917 | Log2(Fold Change) (SCRB1_HUMAN): 0.4543 | Log2(Fold Change) (SIAT1_HUMAN): 1.583 | Log2(Fold Change) (SO4A1_HUMAN): 1.603 | Log2(Fold Change) (SPB4_HUMAN): 1.011 | Log2(Fold Change) (SPB12_HUMAN): 0.1706 | Log2(Fold Change) (SSDH_HUMAN): 0.9154 | Log2(Fold Change) (SUCB1_HUMAN): 0.5342 | Log2(Fold Change) (TAP1_HUMAN): -1.372 | Log2(Fold Change) (TAP2_HUMAN;ABCB8_HUMAN;ABCBA_HUMAN): -0.08664 | Log2(Fold Change) (TBB2B_HUMAN;TBB2A_HUMAN): -0.7631 | Log2(Fold Change) (TSN_HUMAN): 0.3727 | Log2(Fold Change) (TX264_HUMAN): 0.3312 | Log2(Fold Change) (UB2V2_HUMAN;UB2V1_HUMAN): 1.079 | Log2(Fold Change) (UBP5_HUMAN): -0.3855 | Log2(Fold Change) (UBP14_HUMAN): 1.084 | Log2(Fold Change) (URP2_HUMAN): 1.649 | Log2(Fold Change) (USMG5_HUMAN): 0.5625 | Log2(Fold Change) (VDAC1_HUMAN): 0.3406 | Log2(Fold Change) (VEZA_HUMAN): 1.904 | Log2(Fold Change) (XPO2_HUMAN): 0.4199 | Log2(Fold Change) (XPO5_HUMAN): -0.04737 | Log2(Fold Change) (ZDHC8_HUMAN): -1.5861
